Tested on: male db/db mice (C57BLKS/J-m+/+Lepr db/Iar)
Test: Seven day baseline glucose (7DBG) study in fed db/db mice (Example 123, FIGS. 6 and 8)
Format: in vivo, mouse
Conditions: oral once daily 7 days
Protocol: To determine the effect of a test compound on blood glucose levels in fed diabetic mice, seven day baseline glucose (7DBG) studies were conducted. Six to eight week old, male db/db mice (C57BLKS/J-m+/+Lepr^db/Iar), homozygous for a mutation in the gene encoding the leptin receptor, were purchased from the Institute for Animal Reproduction (Kasumigaura, Japan). Six to eight week old male KK-A^y mice (KK-A^y/Ta Jcl), a polygenic diabetes model, were purchased from Cler Japan (Tokyo, Japan). Animals were housed four to a cage in micro-isolators on a 12 hr/12 hr light/dark cycle, acclimated for at least one week prior to use and fed normal laboratory chow ad libitum. Studies were conducted with animals between nine and fourteen weeks of age. […]
To perform a 7DBG study, the starting glucose levels of db/db or KK-Ay mice in the fed state were determined on day 0, 24 hrs prior to the first drug dose on day 1. Animals were retro-orbitally bled and serum glucose levels measured by the mutarotase-glucose oxidase enzymatic method using a Glucose CII-Test Wako kit (Wako Pure Chemicals Industries, Ltd., Osaka, Japan). […] Serum glucose levels were determined 3 hrs after dosing the first compound on days 3 and 7.
The serum glucose levels on days 3 or 7 as a percent of the serum glucose levels on day 0 for individual animals in each group (6-7 mice/group), calculated using Formula 3: [formula] […]

CCOC(=O)C1=C(COCCN)NC2=C(C(=O)CC(C)(C)C2)C1c1cccnc1 (stereo not shown) [Compound 39, 2-(2-Amino-ethoxymethyl)-7,7-dimethyl-5-oxo-4-pyridin-3-yl-1,4,5,6,7,8-hexahydro-quinoline-3-carboxylic acid ethyl ester]
glucose lowering activities of rosiglitazone and metformin in combination with Compound 39 (FIG. 8): enhanced
